Test results taken from US9328374B2, “Selective culture medium and method for detecting carbapenem-resistant bacteria in a test sample” (Institut National de la Sante et de la Recherche Medicale …, priority 2011, dated 2016).

Tests used:
Assay in all cases: MIC of imipenem, ertapenem and meropenem
E. coli = assay type: cell-based, Escherichia coli
P. stuartii = assay type: cell-based, Providencia stuartii
P. mirabilis = assay type: cell-based

## C[C@@H](O)[C@H]1C(=O)N2C(C(=O)O)=C(SCCN=CN)C[C@H]12 [IPM, imipenem]
E. coli; E. coli 1008 (TEM-1 + CTX-M-1)
  MIC: 0.19 µg/mL
E. coli; E. coli 1008, CTX-M-1 + TEM-1, non-carbapenemase producer
  MIC: 0.19 µg/mL
E. coli; E. coli 1020, CTX-M-1 + TEM-1, non-carbapenemase producer
  MIC: 0.19 µg/mL
E. coli; E. coli 1023, CTX-M-2 + TEM-1, non-carbapenemase producer
  MIC: 0.12 µg/mL
E. coli; E. coli 1033, CTX-M-15, non-carbapenemase producer
  MIC: 0.19 µg/mL
E. coli; E. coli 1034 (TEM-1 + SHV-38)
  MIC: 0.19 µg/mL
E. coli; E. coli 1034, TEM-1 + SHV-38, non-carbapenemase producer
  MIC: 0.19 µg/mL
E. coli; E. coli 1048 (TEM-1 + SHV-2a)
  MIC: 0.19 µg/mL
E. coli; E. coli 1048, TEM-1 + SHV-2a, non-carbapenemase producer
  MIC: 0.19 µg/mL
E. coli; E. coli 1082 (TEM-1)
  MIC: 0.19 µg/mL
E. coli; E. coli 1082, TEM-1, non-carbapenemase producer
  MIC: 0.19 µg/mL
E. coli; E. coli 1092 (OXA-1)
  MIC: 0.12 µg/mL
E. coli; E. coli 1092, OXA-1, non-carbapenemase producer
  MIC: 0.12 µg/mL
E. coli; E. coli 6252, (wild type), non-carbapenemase producer
  MIC: 0.12 µg/mL
E. coli; E. coli 6367 (wild type)
  MIC: 0.19 µg/mL
E. coli; E. coli 6367, (wild type), non-carbapenemase producer
  MIC: 0.19 µg/mL
E. coli; E. coli 10121 (CTX-M-2)
  MIC: 0.19 µg/mL
E. coli; E. coli 10121, CTX-M-2, non-carbapenemase producer
  MIC: 0.19 µg/mL
E. coli; E. coli 10122, CTX-M-1 + TEM-1, non-carbapenemase producer
  MIC: 0.19 µg/mL
E. coli; E. coli 0404018, VIM-1+ CMY-6
  MIC: 3 µg/mL
E. coli; E. coli 1008077, VIM-1+ TEM-1 + CTX-M-15
  MIC: >32 µg/mL
E. coli; E. coli 1108013, IMP-1 + TEM-1
  MIC: 0.5 µg/mL
E. coli; E. coli ALL (NDM-1 + OXA-1 + OXA-2 + CTX-M-15 + TEM-1)
  MIC: 4 µg/mL
E. coli; E. coli ALL, NDM-1 + TEM-1 + CTX-M-15 + OXA-1 + OXA-2
  MIC: 4 µg/mL
E. coli; E. coli AME (OXA-48 + CTX-M-24)
  MIC: 0.25 µg/mL
E. coli; E. coli AME, OXA-48 + CTX-M-24
  MIC: 0.25 µg/mL
E. coli; E. coli AUS (NDM-1 + CTX-M-15 + TEM-1)
  MIC: 6 µg/mL
E. coli; E. coli AUS, NDM-1 + TEM-1 + CTX-M-15
  MIC: 6 µg/mL
E. coli; E. coli BER (OXA-48 + CTX-M-15)
  MIC: 0.38 µg/mL
E. coli; E. coli BER, OXA-48 + TEM-1 + CTX-M-15
  MIC: 0.38 µg/mL
E. coli; E. coli BOK (OXA-48 + CTX-M-15)
  MIC: 0.25 µg/mL
E. coli; E. coli BOK, OXA-48 + CTX-M-15
  MIC: 0.25 µg/mL
E. coli; E. coli BON (OXA-48 + CTX-M-24 + TEM-1)
  MIC: 0.38 µg/mL
E. coli; E. coli BON, OXA-48 + TEM-1 + CTX-M-24
  MIC: 0.38 µg/mL
E. coli; E. coli BOU (OXA-48 + CTX-M-15)
  MIC: 0.5 µg/mL
E. coli; E. coli BOU, OXA-48 + CTX-M-15
  MIC: 0.5 µg/mL
E. coli; E. coli COL (KPC-2)
  MIC: 4 µg/mL
E. coli; E. coli COL, KPC-2 + TEM-1 + CTX-M-9
  MIC: 4 µg/mL
E. coli; E. coli DIH (VIM-19)
  MIC: 8 µg/mL
E. coli; E. coli DIH, VIM-19
  MIC: 8 µg/mL
E. coli; E. coli DIN, KPC-2 + TEM-1 + OXA-1
  MIC: 1 µg/mL
E. coli; E. coli E14 (CTX-M-14)
  MIC: 0.12 µg/mL
E. coli; E. coli E14, CTX-M-14, non-carbapenemase producer
  MIC: 0.12 µg/mL
E. coli; E. coli ECA (ACC-1)
  MIC: 0.12 µg/mL
E. coli; E. coli ECA, ACC-1, non-carbapenemase producer
  MIC: 0.12 µg/mL
E. coli; E. coli EVB (VEB-1)
  MIC: 0.12 µg/mL
E. coli; E. coli EVB, VEB-1, non-carbapenemase producer
  MIC: 0.12 µg/mL
E. coli; E. coli FOR (CTX-M-15)
  MIC: 0.12 µg/mL
E. coli; E. coli FOR, CTX-M-15, non-carbapenemase producer
  MIC: 0.12 µg/mL
E. coli; E. coli GEN (NDM-1 + OXA-1 + CMY-30 + TEM-1)
  MIC: 8 µg/mL
E. coli; E. coli GEN, NDM-1 + TEM-1 + CMY-30 + OXA-1
  MIC: 8 µg/mL
E. coli; E. coli GOG (OXA-48 + CTX-M-24)
  MIC: 0.5 µg/mL
E. coli; E. coli GUE (NDM-1 + OXA-1 + TEM-1)
  MIC: 3 µg/mL
E. coli; E. coli GUE, NDM-1 + TEM-1 + OXA-1
  MIC: 3 µg/mL
E. coli; E. coli HAN (OXA-48 + CTX-M-15)
  MIC: 3 µg/mL
E. coli; E. coli HAN, OXA-48 + CTX-M-15
  MIC: 3 µg/mL
E. coli; E. coli HB4 (OmpC-, OmpF-)
  MIC: 0.12 µg/mL
E. coli; E. coli HB4, (OmpC-, OmpF-), non-carbapenemase producer, porin deficiency
  MIC: 0.12 µg/mL
E. coli; E. coli IR5 (NDM-1 + CTX-M-15 + TEM-1)
  MIC: 16 µg/mL
E. coli; E. coli IR5, NDM-1 + TEM-1 + CTX-M-15
  MIC: 16 µg/mL
E. coli; E. coli JAP (IMP-1)
  MIC: 0.5 µg/mL
E. coli; E. coli JAP, IMP-1
  MIC: 0.5 µg/mL
E. coli; E. coli LIL, KPC-2 + TEM-1 + OXA-9
  MIC: 2 µg/mL
E. coli; E. coli MAD (VIM-1 + CTX-M-3)
  MIC: 1.5 µg/mL
E. coli; E. coli MAD, VIM-1+ CTX-M-3
  MIC: 1.5 µg/mL
E. coli; E. coli MAR (Overexpressed AmpC)
  MIC: 16 µg/mL
E. coli; E. coli MAR, Overexpressed AmpC, non-carbapenemase producer
  MIC: 16 µg/mL
E. coli; E. coli MET (Chromosome-encoded extended-spectrum cephalosporinase)
  MIC: 0.12 µg/mL
E. coli; E. coli MET, Chromosome-encoded extended-spectrum cephalosporinase, non-carbapenemase producer
  MIC: 0.12 µg/mL
E. coli; E. coli NAA (OXA-48 + CTX-M-24)
  MIC: 0.5 µg/mL
E. coli; E. coli OM3, OXA-48 + TEM-1 + CTX-M-15
  MIC: 0.5 µg/mL
E. coli; E. coli OM20, NDM-1 + TEM-1 + CTX-M-15
  MIC: 2 µg/mL
E. coli; E. coli OM22, OXA-48 + TEM-1 + CTX-M-15
  MIC: 0.5 µg/mL
E. coli; E. coli PSP (KPC-2)
  MIC: 0.5 µg/mL
E. coli; E. coli PSP, KPC-2 + TEM-1 + OXA-1
  MIC: 0.5 µg/mL
E. coli; E. coli RIC (NDM-1 + OXA-1 + OXA-10 + CMY-16)
  MIC: 1 µg/mL
E. coli; E. coli RIC, NDM-1 + CMY-16 + OXA-1 + OXA-10
  MIC: 1 µg/mL
E. coli; E. coli ROB (OXA-48)
  MIC: 0.5 µg/mL
E. coli; E. coli ROB, OXA-48
  MIC: 0.5 µg/mL
E. coli; E. coli SYD (CMY-2)
  MIC: 0.12 µg/mL
E. coli; E. coli SYD, CMY-2, non-carbapenemase producer
  MIC: 0.12 µg/mL
E. coli; E. coli TWA, IMP-8 + SHV-12
  MIC: 6 µg/mL
E. coli; E. coli ZAN, OXA-48 + TEM-1 + CTX-M-14
  MIC: 0.38 µg/mL
E. coli; strain E. coli 1008, TEM-1 + CTX-M-1, non-carbapenemase producer
  MIC: 0.19 µg/mL
E. coli; strain E. coli 1034, TEM-1 + SHV-38, non-carbapenemase producer
  MIC: 0.19 µg/mL
E. coli; strain E. coli 1048, TEM-1 + SHV-2a, non-carbapenemase producer
  MIC: 0.19 µg/mL
E. coli; strain E. coli 10121, CTX-M-2, non-carbapenemase producer
  MIC: 0.19 µg/mL
E. coli; strain E. coli AME, OXA-48 + CTX-M-24
  MIC: 0.25 µg/mL
E. coli; strain E. coli BON, OXA-48 + TEM-1 + CTX-M-24
  MIC: 0.38 µg/mL
E. coli; strain E. coli BOU, OXA-48 + CTX-M-15
  MIC: 0.5 µg/mL
E. coli; strain E. coli ECA, ACC-1, non-carbapenemase producer
  MIC: 0.12 µg/mL
E. coli; strain E. coli EVB, VEB-1, non-carbapenemase producer
  MIC: 0.12 µg/mL
E. coli; strain E. coli FOR, CTX-M-15, non-carbapenemase producer
  MIC: 0.12 µg/mL
E. coli; strain E. coli HB4, (OmpC-, OmpF-), non-carbapenemase producer
  MIC: 0.12 µg/mL
E. coli; strain E. coli JAP, IMP-1
  MIC: 0.5 µg/mL
E. coli; strain E. coli MAR, Overexpressed AmpC, non-carbapenemase producer
  MIC: 16 µg/mL
E. coli; strain E. coli MET, Chromosome-encoded extended-spectrum cephalosporinase, non-carbapenemase producer
  MIC: 0.12 µg/mL
E. coli; strain E. coli ROB, OXA-48
  MIC: 0.5 µg/mL
E. coli; strain E. coli SYD, CMY-2, non-carbapenemase producer
  MIC: 0.12 µg/mL
P. stuartii; P. stuartii NDM (NDM-1 + OXA-1 + CMY-6)
  MIC: 12 µg/mL
P. stuartii; P. stuartii PS1 (NDM-1 + CMY-6 + OXA-1)
  MIC: 12 µg/mL
P. stuartii; P. stuartii PS1, NDM-1 + CMY-6 + OXA-1
  MIC: 12 µg/mL
P. stuartii; strain P. stuartii PS1, NDM-1 + CMY-6 + OXA-1
  MIC: 12 µg/mL
P. mirabilis; P. mirabilis 1031 (CTX-M-14 + TEM-1 + SHV-11)
  MIC: 1.5 µg/mL
P. mirabilis; P. mirabilis 1031, CTX-M-14 + TEM-1 + SHV-11, non-carbapenemase producer
  MIC: 1.5 µg/mL
P. mirabilis; P. mirabilis PMA (ACC-1)
  MIC: 0.25 µg/mL
P. mirabilis; P. mirabilis PMA, ACC-1, non-carbapenemase producer
  MIC: 0.25 µg/mL
